According to US12459939B2 (SHANGHAI RINGENE BIOPHARMA CO., LTD., priority 2019, dated 2025):

What was measured:
[1] = Metabolic stability in mouse liver microsomes; assay type: in vitro ADME; settings: liver microsomes 0.5 mg/mL, NADPH, 1 μM compound, read-out: Mouse microsomal T1/2
Description: (§1) (1) Metabolic stability test: 150 μL of liver microsomes (final concentration was 0.5 mg/mL) were subjected to metabolic stability incubation, the system containing NADPH (final concentration was 1 mM), 1 μM of the test compound and the positive control midazolam or the negative control atenolol, the reaction was terminated with acetonitrile containing tinidazole at 0 min, 5 min, 10 min, and 30 min, respectively, then the mixture was vortexed for 10 min, and centrifuged at 15000 rmp for 10 min, 50 μL of the supernatant was injected into 96 well. The metabolic stability of the compound was calculated by measuring the relative reduction of the original drug. (See Table 3 for specific values)

[2] = Metabolic stability in dog liver microsomes; assay type: in vitro ADME; settings: liver microsomes 0.5 mg/mL, NADPH, 1 μM compound, read-out: Dog microsomal T1/2
Description: as §1

[3] = Metabolic stability in rat liver microsomes; assay type: in vitro ADME; settings: liver microsomes 0.5 mg/mL, NADPH, 1 μM compound, read-out: Rat microsomal T1/2
Description: as §1

BRD4-BD1 = target: T1, BRD4-BD1 (Homo sapiens, UniProt O60885); assay: BRD4 AlphaScreen determination (BD1); assay type: binding; settings: AlphaScreen, protein binding inhibition; read-out: BRD4-BD1 IC50
T1 construct: purchased ReactionBiologyCorp; (RBC)
Description: (§2) (1) 1× Assay buffer was prepared according to the kit requirements of ReactionBiologyCorp. (RBC). (2) Compound concentration gradient preparation: the test compounds were tested at final concentrations starting at 10 μM, with 10 concentrations at 3-fold dilution and single well test was set for each concentration. The positive control compound(+)-JQ-1 was tested at final concentrations starting at 1 μM, with 10 concentrations at 3-fold dilution, and duplicated well test was set for each concentration. The solution was gradient diluted to the corresponding 1000-fold final concentration in a 384-well Source plate, and then 20 nL of the solution was transferred to the 384-well reaction plate with Echo550 to be measured. 20 nL of 100% DMSO was transferred to the Max well, and the highest concentration of the positive compounds were transferred to the Min wells. […] (6) 5 μL of 4× peptide solution was added to each well of the reaction plate, centrifuged at 1000 rpm for 1 min. (7) 10 μL of the assay solution was added, centrifuged at 1000 rpm for 60 seconds, the solution was mixed with gentle shaking, and incubated at room temperature for 60 minutes. (8) Reading with EnVision. (9) The IC50 values of the compounds for protein binding inhibition was obtained by fitting the dose-effect curve with the analytical software GraphPad Prism 5. (See Table 1 for specific values)

IEC6 = assay: Proliferation inhibition of IEC6 cells; assay type: cell-based; settings: Rattus norvegicus, IEC-6; IEC6 cell line; read-out: proliferation inhibitory activity IC50
Description: (§3) The proliferation inhibitory activity of some of the embodiment compounds against different cell lines such as LNCAP (+R1881), SKM-1, 22RV1, DU145, MOLM13, MDA-PCA-2b, KASUMI 1, THP-1, KG-1, IEC6, H1299, etc., was tested using similar methods in test embodiment 2 and in the literature.

BRD4-BD2 = target: T2, BRD4-BD2 (Homo sapiens, UniProt O60885); assay: BRD4 AlphaScreen determination (BD2); assay type: binding; settings: AlphaScreen, protein binding inhibition; read-out: BRD4-BD2 IC50
T2 construct: purchased ReactionBiologyCorp; (RBC)
Description: as §2

[4] = test system: LNCAP, SKM-1, MOLM13, KASUMI 1, THP-1, KG-1; assay: Proliferation inhibition of different cell lines: most sensitive lines; assay type: cell-based; settings: some cell lines such as LNCAP, read-out: proliferation inhibitory activity IC50
Description: as §3

H1299 = assay: Proliferation inhibition of H1299 cells; assay type: cell-based; settings: Homo sapiens, NCI-H1299; H1299 cell line; read-out: proliferation inhibitory activity IC50
Description: as §3

[5] = test system: most AML cell lines and prostate cancer cell lines; assay: Proliferation inhibition of different cell lines: AML and prostate cancer lines; assay type: cell-based; settings: read-out: proliferation inhibitory activity IC50
Description: as §3

MV4-11 cells = assay: Inhibition of proliferation of MV4-11 cells (CellTiter-Glo); assay type: cell-based; settings: Homo sapiens, 72 h
Description: Specific experimental steps: 1) Day 0: 96 inoculated cells were digested with trypsin and suspended in cell culture medium, the cell density was detected by an automatic cell counter and the cells were diluted with the culture medium to a suitable density, 100 μL of cell suspension was added to the 96-well plate, and the cell-free medium was used as a control well, and the wells were incubated in a 37° C., 5% CO2 cell incubator overnight; 2) Day 1: A total of 8 concentrations of the compound to be tested in the drug-treated cells were tested at 3-fold dilution, 10 μM was the starting assay concentration of the compound to be tested. Specific steps: 200× compound mother liquor was prepared, the compound was diluted with culture medium to a final concentration of […], that is, 3 μL of 200× compound was added to 197 μL of culture medium, 50 μL diluted compound was added to each well of the 96-well plate, and placed at 37° C., 5% CO2 cell culture incubator for 72 h; 3) Day 4: Cell viability detection: 96-well cell plate was first equilibrated to room temperature, 40 μL of CellTiter-Glo® reagent was added to each well, mixed on a shaker for 2 minutes to fully lyse the cells, incubated at room temperature for 10 minutes to stabilize the luminescence signal, and the luminescence value was read by the Envision microplate reader; 4) data processing was performed by GraphPad Prism 5.0 software to analyze the data, and nonlinear S-curve regression was used to fit the data to obtain a dose-effect curve, and from which the ICso value was calculated. Inhibition rate %=(DMSO treated cell wells−compound treated cell wells)/(DMSO treated cell wells−cell free medium wells)×100. The ICso value was obtained by the four-parameter regression method using the random software in the microplate reader. (See Table 2 for specific values)

[6] = test system: MV 4-11 transplanted tumor; assay: Growth inhibition of MV 4-11 transplanted tumor in nude mice; assay type: in vivo; settings: dose of 15 mpk, oral, daily
Description: The tumor tissue in vigorous growth stage was cut into about 1.5 mm^3 and inoculated subcutaneously in the right armpit of nude mice under sterile conditions. The diameter of subcutaneous transplanted tumor in nude mice was measured with vernier caliper, and the animals were randomly divided into groups when the average tumor volume was about 130 mm^3. […] During the whole experiment, the diameter of the transplanted tumor was measured twice a week, and the weight of mice was weighed at the same time. The calculation formula of tumor volume (TV) was: TV=½×a×b^2, wherein a and b represent the length and width respectively. The relative tumor volume (RTV) was calculated according to the measurement results, and the calculation formula was: RTV=VT/v0. Wherein VO is the tumor volume measured during the administration in cage (i.e., d0), and Vt is the tumor volume at each measurement.

[7] = In vivo pharmacokinetics in mice; settings: male, Balb c, mouse, plasma, po, 5 mg/kg
Description: Six male SPF-grade SD rats or Balb c mice (Shanghai B&K laboratory animals) were divided into two groups and the test compounds were configured into suitable solutions or suspensions; one group was administered intravenously and one group was administered orally. Blood was collected by jugular vein puncture, and each sample was collected about 0.2 mL/time point, heparin sodium was used for anticoagulation, the blood collection time points were as follows: before administration and 5, 15 and 30 minutes, 1, 2, 4, 6, 8 and 24 h after administration, the blood sample was collected and placed on ice, centrifuged to separate the plasma (centrifugation conditions: 8000 rpm, 6 minutes, 2-8° C.), and the collected plasma was stored at −80° C. before analysis. The plasma samples were analyzed by LC-MS/MS.
According to the blood drug concentration data of the drug, the pharmacokinetic calculation software WinNonlin5.2 non-compartmental model was used to calculate the pharmacokinetic parameters AUC0-t, AUC0-∞, MRT0-∞, Cmax, Tmax, T1/2 and Vd and other parameters and their mean and standard deviation. In addition, the bioavailability (F) was calculated by the following formula.
For samples with a concentration lower than the lower limit of quantification, when calculating the pharmacokinetic parameters, the samples sampled before reaching Cmax should be calculated as zero, and samples sampled after reaching Cmax should be calculated as unquantifiable (BLQ).

SMILES	half-life at 1 μM [1] [h]	half-life at 1 μM [2] [h]	half-life at 1 μM [3] [h]	IC50 (BRD4-BD1) [nM]	IC50 (IEC6) [nM]	IC50 (BRD4-BD2) [nM]	IC50 [4] [nM]	IC50 (H1299) [nM]	IC50 [5] [nM]	IC50 (MV4-11 cells) [nM]	inhibitory rate (growth of transplanted tumor) [6]	bioavailability [7] [%]
CCNC(=O)c1cc2c(=O)n(C)cc(-c3cc(C(C)(C)O)ccc3Oc3c(C)cc(F)cc3C)c2[nH]1	2.83	3.25	2.8									
Cc1cc(F)cc(C)c1Oc1ccc(C(C)(C)O)cc1-c1cn(C)c(=O)c2cc(C(=O)NCC(F)F)[nH]c12 [Embodiment 11, N-(2,2-difluoroethyl)-7-(2-(4-fluoro-2,6-dimethylphenoxy)-5-(2-hydroxyprop-2-yl)phenyl)-5-methyl-4-oxo-4,5-dihydro-1H-pyrrolo[3,2-c] pyridine-2-amide]	0.65	6.72	1.28	109	> 1000	0.57	< 100	> 1000	< 1000	20.4		
CCNC(=O)c1cc2c(-c3cc(C(C)(C)O)ccc3Oc3c(C)cc(F)cc3C)cn(C)c(=O)c2[nH]1 [compound 1, N-ethyl-4-(2-(4-fluoro-2,6-dimethylphenoxy)-5-(2-hydroxyprop-2-yl)phenyl)-6-methyl-7-oxo-6,7-dihydro-1H-pyrrolo[2,3-c]pyridine-2-amide, reference compound]	0.317	1.13	1.03							32	about 60%	25
